Reference: patent publication US8034940B2, “Modulators of glucocorticoid receptor, AP-1, and/or NF-κB activity and use thereof” (Bristol-Myers Squibb Company, priority 2006, dated 2011)
Like-named read-outs stand apart in the source and are kept apart here.

Columns and labels:
[1] = biological target: T1, human full-length glucocorticoid receptor (Homo sapiens, UniProt P04150); experiment: Glucocorticoid Receptor Binding Assay (I), fluorescence polarization, Fluormone GS Red; parameters: purified human recombinant full-length glucocorticoid receptor; purchased Invitrogen Part #2893
T1 sequence (P04150 1-777): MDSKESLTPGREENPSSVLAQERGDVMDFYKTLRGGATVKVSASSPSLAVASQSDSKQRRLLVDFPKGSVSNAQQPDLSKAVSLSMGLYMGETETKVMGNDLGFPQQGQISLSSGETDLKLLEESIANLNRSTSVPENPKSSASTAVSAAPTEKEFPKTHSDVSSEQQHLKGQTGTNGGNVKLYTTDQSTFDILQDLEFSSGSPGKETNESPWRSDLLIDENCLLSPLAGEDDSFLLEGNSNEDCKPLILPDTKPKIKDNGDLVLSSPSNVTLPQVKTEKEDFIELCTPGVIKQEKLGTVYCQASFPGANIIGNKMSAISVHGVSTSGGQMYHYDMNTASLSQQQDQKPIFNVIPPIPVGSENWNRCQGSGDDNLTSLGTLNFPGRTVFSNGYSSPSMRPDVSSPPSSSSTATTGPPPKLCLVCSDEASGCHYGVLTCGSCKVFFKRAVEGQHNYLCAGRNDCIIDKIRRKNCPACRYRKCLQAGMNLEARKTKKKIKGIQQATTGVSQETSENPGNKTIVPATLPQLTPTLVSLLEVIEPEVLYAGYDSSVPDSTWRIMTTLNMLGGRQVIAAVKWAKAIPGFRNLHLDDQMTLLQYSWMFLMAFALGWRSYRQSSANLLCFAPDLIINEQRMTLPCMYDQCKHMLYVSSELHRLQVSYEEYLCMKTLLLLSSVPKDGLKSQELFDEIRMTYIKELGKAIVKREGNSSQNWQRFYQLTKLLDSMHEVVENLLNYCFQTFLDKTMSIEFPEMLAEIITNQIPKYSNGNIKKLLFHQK
Description: Glucocorticoid Receptor Binding Assay (I)^a
Briefly, purified human recombinant full-length glucocorticoid receptor (2 nM) was mixed with fluorescently labeled glucocorticoid (1 nM Fluormone GS Red) in the presence or absence of test compound. After two hour incubation at room temperature in the dark, the fluorescence polarization (FP) of the samples was measured. […] Test compounds were analyzed in the concentration range from 8.5E-05 μM to 5 μM.

[2] = test system: AP-1 induced transcriptional activity; experiment: Cellular Transrepressional Assay (AP-1 luciferase reporter, PMA-activated A549 cells); format: cell-based; details: for Emax: A549, 7 h, read-out: AP-1 Max % inh (Cellular Transrepression Assay); for Emax / AP-1 Max % inh (Cellular Transrepression Assay): maximum inhibition
Outline: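 A549 cells stably carrying a 7× AP-1–luciferase reporter were stimulated with 10 ng/ml PMA with or without compound (0.1 nM–40 μM) for 7 h. Luminescence read 10 min after luciferase reagent; EC50 fitted from % decrease versus PMA-only signal.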

[3] = GR Binding Assay (I), read-out: GR (Ki, nM) (GR Binding Assay (I))
[4] = Homo sapiens, Cellular Transrepression Assay
[5] = Homo sapiens, A549, Cellular Transrepression Assay

Work on `CC(C)(C(=O)Nc1nncs1)[C@H]1c2ccccc2Oc2nc(-c3ccc(C(=O)N4CCC(CO)CC4)cc3)ccc21` [Example 279] yielded a Ki [1, 3] of 20.8 nM.

For `Cc1cc(-c2ccc3c(n2)Oc2ccccc2[C@@H]3C(C)(C)C(=O)Nc2nncs2)ccc1OC(C)C` [Example 224], the Ki [1, 3] was 8.06 nM.

`CC(C)(C(=O)Nc1nncs1)[C@H]1c2ccccc2Oc2nc(N3CCC(C(=O)N4CCCC4)CC3)ccc21` [Example 403] was tested, and the Ki [1, 3] was 61.2 nM.

`CC(C)(C(=O)Nc1nncs1)[C@H]1c2ccccc2Oc2nc(-c3ccc(C(=O)N(CCO)CCO)cc3)ccc21` [Example 304] showed a Ki [1, 3] of 149 nM.

Work on `CNC(=O)c1ccc2c(c1)Oc1ccccc1C2C(C)(C)C(=O)Nc1nncs1` (stereo not shown) [Example 117] yielded a Ki [1, 3] of 123 nM.

Work on `CN(CCC#N)C(=O)c1ccc(-c2ccc3c(n2)Oc2ccccc2[C@@H]3C(C)(C)C(=O)Nc2nncs2)cc1F` [Example 326] yielded a Ki [1, 3] of 10.5 nM.

`CC(C)(C(=O)Nc1nncs1)C1c2ccccc2Oc2cc(C(=O)O)ccc21` (stereo not shown) [Example 114] was tested, and the Ki [1, 3] was 49.9 nM.

Work on `CN(C)C(=O)c1ccc(-c2ccc3c(n2)Oc2ccccc2C3C2(C(=O)Nc3nncs3)CC2)cc1` (stereo not shown) [Example 489] yielded a Ki [1, 3] of 144 nM.

`CNC(=O)C1CCN(C(=O)c2ccc(-c3ccc4c(n3)Oc3ccccc3[C@@H]4C(C)(C)C(=O)Nc3nncs3)cc2)CC1` [Example 321] gave a Ki [1, 3] of 30.6 nM.

`CCN(CCO)C(=O)c1ccc(-c2ccc3c(n2)Oc2ccccc2[C@@H]3C(C)(C)C(=O)Nc2nncs2)cc1` [Example 320] showed a Ki [1, 3] of 13.1 nM.

`CC(C)NS(=O)(=O)c1ccc(-c2ccc3c(n2)Oc2ccccc2[C@@H]3C(C)(C)C(=O)Nc2nncs2)cc1` [Example 236] gave a Ki [1, 3] of 9.44 nM.

`CCCCCCc1ccc2c(n1)Oc1ccccc1[C@@H]2C(C)(C)C(=O)Nc1nncs1` [Example 437] was tested, and the Ki [1, 3] was 11.1 nM.

For `CN(CCOC(C)(C)C)C(=O)c1ccc(-c2ccc3c(n2)Oc2ccccc2[C@@H]3C(C)(C)C(=O)Nc2nncs2)cc1` [Example 302], the Ki [1, 3] was 126 nM.

`CN(C)C(=O)c1ccc(-c2ccc3c(n2)Oc2ccccc2C3C(C)(C)C(=O)Nc2ncn[nH]2)cc1` (stereo not shown) [Example 439] was tested, and the Ki [1, 3] was 65.8 nM.

Work on `CCCNC(=O)c1ccc(-c2ccc3c(n2)Oc2ccccc2[C@@H]3C(C)(C)C(=O)Nc2nncs2)cc1` [Example 358] yielded a Ki [1, 3] of 40.5 nM.

Work on `CC(C)(C(=O)Nc1nncs1)C1c2ccccc2Oc2cc(C(N)=O)ccc21` (stereo not shown) [Example 113] yielded a Ki [1, 3] of 62.6 nM.

Compound `COc1cc(-c2ccc3c(n2)Oc2ccccc2[C@@H]3C(C)(C)C(=O)Nc2nncs2)ccc1C(=O)N1CCCCC1` [Example 265] has a Ki [1, 3] of 126 nM.

`CC(C)(C(=O)Nc1nncs1)C1c2cccnc2Oc2c(F)cccc21` (stereo not shown) [Example 72] gave a Ki [1, 3] greater than 1150 nM.

Compound `CN(C)C(=O)c1ccc(-c2ccc3c(c2)Oc2ccccc2C3C(C)(C)C(=O)Nc2nncs2)s1` (stereo not shown) [Example 104] has a Ki [1, 3] of 4.5 nM.

`CC(C)(C(=O)Nc1nncs1)[C@H]1c2ccccc2Oc2nc(C#N)ccc21` [Example 395] was tested, and the Ki [1, 3] was 1.19 nM.

For `CN(C)[C@H]1CCN(C(=O)c2ccc(-c3ccc4c(n3)Oc3ccccc3[C@@H]4C(C)(C)C(=O)Nc3nncs3)cc2)C1` [Example 308], the Ki [1, 3] was 313 nM.

With `CN(C(=O)c1ccc(-c2ccc3c(n2)Oc2ccccc2[C@@H]3C(C)(C)C(=O)Nc2nncs2)cc1)C1CCS(=O)(=O)C1` (stereo partly shown) [Example 313] the Ki [1, 3] was 4.65 nM.

`Cc1nc(NC(=O)C(C)(C)C2c3ccccc3Oc3nc(-c4ccc(C(=O)N(C)C)cc4)ccc32)sc1C` (stereo not shown) [Example 365] was tested, and the Ki [1, 3] was 18.3 nM.

Compound `CC(C)(C(=O)Nc1nncs1)C1c2ccccc2Oc2cc(NC(=O)NC3CC3)ccc21` (stereo not shown) [Example 124] has a Ki [1, 3] of 65.1 nM.

With `CC(C)(C(=O)Nc1nncs1)[C@H]1c2ccccc2Oc2nc(-c3ccc(C(N)=O)cc3)ccc21` [Example 215] the Ki [1] was 2.5 nM.

With `CC1CCN(C(=O)c2ccc(-c3ccc4c(n3)Oc3ccccc3[C@@H]4C(C)(C)C(=O)Nc3nncs3)cc2)CC1` [Example 268] the Ki [1, 3] was 9.45 nM.

`CC(C)(C(=O)Nc1nncs1)[C@H]1c2ccccc2Oc2nc(-c3ccc(C(=O)N4CCCOCC4)cc3)ccc21` [Example 323] was tested, and the Ki [1, 3] was 3.69 nM.

With `CC(C)(C(=O)Nc1nncs1)[C@H]1c2ccccc2Oc2nc(-c3ccc(C(=O)NC4CCCC4)cc3)ccc21` [Example 351] the Ki [1, 3] was 147 nM.

Compound `CCCCN(C)C(=O)c1ccc(-c2ccc3c(n2)Oc2ccccc2[C@@H]3C(C)(C)C(=O)Nc2nncs2)cc1` [Example 292] has a Ki [1, 3] of 10.8 nM.

With `CC(C)(C(=O)Nc1nncs1)[C@H]1c2ccccc2Oc2nc(-c3ccc(C(=O)N4CCC(Cc5ccccc5)CC4)cc3)ccc21` [Example 278] the Ki [1, 3] was 30.5 nM.

`CC(C)(C(=O)Nc1nncs1)[C@H]1c2ccccc2Oc2nc(-c3ccc(OC4CCCCC4)c(F)c3)ccc21` [Example 243] gave a Ki [1, 3] greater than 1150 nM.

`CC(C)(C(=O)Nc1nncs1)[C@H]1c2ccccc2Oc2nc(-c3ccc(C(=O)O)c(F)c3)ccc21` [Example 213] was tested, and the Ki [1, 3] was 7.95 nM.

In the case of `CC(C)(C(=O)Nc1nncs1)[C@H]1c2ccccc2Oc2nc(-c3ccc(S(=O)(=O)N4CCOCC4)cc3)ccc21` [Example 233], the Ki [1, 3] is reported as 11.3 nM.

Work on `CN(C)C(=O)c1ccc(-c2ccc3c(n2)Oc2ccccc2C3C(C)(C)C(=O)Nc2ccn(C)n2)cc1` (stereo not shown) [Example 366] yielded a Ki [1, 3] of 200 nM.

With `COc1ccc(-c2ccc3c(n2)Oc2ccccc2[C@@H]3C(C)(C)C(=O)Nc2nncs2)cn1` [Example 218] the Ki [1, 3] was 1.24 nM.

`Cc1nnc(-c2ccc(-c3ccc4c(n3)Oc3ccccc3[C@@H]4C(C)(C)C(=O)Nc3nncs3)cc2)o1` [Example 237] was tested, and the Ki [1, 3] was 6.04 nM.

In the case of `CN(C)C(=O)CNC(=O)Nc1ccc2c(n1)Oc1ccccc1[C@@H]2C(C)(C)C(=O)Nc1nncs1` [Example 402], the Ki [1, 3] is reported as 699 nM.

Work on `CN(C)C(=O)c1ccc(-c2ccc3c(n2)Oc2ccccc2[C@@H]3C(C)(C)C(=O)Nc2nncs2)s1` [Example 462] yielded a Ki [1, 3] of 3.78 nM.

`CN(CCc1ccccn1)C(=O)c1ccc(-c2ccc3c(n2)Oc2ccccc2[C@@H]3C(C)(C)C(=O)Nc2nncs2)cc1` [Example 299] was tested, and the Ki [1, 3] was 13.3 nM.

`CC(C)(C(=O)Nc1nncs1)C1c2ccccc2Oc2cc(-c3ncc(C(=O)O)cn3)ccc21` (stereo not shown) [Example 108] was tested, and the Ki [1, 3] was 13.6 nM.

`Cc1nnc(NC(=O)C(C)(C)[C@H]2c3ccccc3Oc3nc(-c4ccc(OC(C)C)c(Cl)c4)ccc32)s1` [Example 476] gave a Ki [1, 3] of 16.4 nM.

In the case of `CC1(C)CCCN(C(=O)c2ccc(-c3ccc4c(n3)Oc3ccccc3[C@@H]4C(C)(C)C(=O)Nc3nncs3)cc2)C1` [Example 271], the Ki [1, 3] is reported as 218 nM.

In the case of `CN(C)C(=O)c1ccc(-c2ccc3c(n2)Oc2ccccc2[C@H]3C(C)(C)C(=O)Nc2nncs2)cc1` [Example 168], the Ki [1, 3] is reported as 486 nM.

In the case of `CC(C)NC(=O)c1ccc(-c2ccc3c(n2)Oc2ccccc2[C@@H]3C(C)(C)C(=O)Nc2nncs2)cc1` [Example 353], the Ki [1, 3] is reported as 13 nM.

`CC(C)(C(=O)Nc1nncs1)[C@H]1c2ccccc2Oc2nc(C3=CCN(C(=O)N4CCCC4)CC3)ccc21` [Example 408] gave an Emax [2, 4] of 24.1% and an EC50 [2, 5] of 364 nM.

With `C[S+]([O-])c1ccc(-c2ccc3c(n2)Oc2ccccc2[C@@H]3C(C)(C)C(=O)Nc2nncs2)cc1` (stereo partly shown) [Example 241] the Emax [2, 4] was 46.8% and the EC50 [2, 5] was 25.3 nM.

`CN(C)C(=O)c1ccc(-c2ccc3c(n2)Oc2ccccc2C3C2(C(=O)Nc3nncs3)CCC2)cc1` (stereo not shown) [Example 479] showed an Emax [2, 4] of 44.4% and an EC50 [2, 5] of 47 nM.

`CCN(C)C(=O)c1ccc(-c2ccc3c(n2)Oc2ccccc2[C@@H]3C(C)(C)C(=O)Nc2ncns2)cc1` [Example 467] showed an Emax [2, 4] of 57.5% and an EC50 [2, 5] of 15 nM.

With `Cc1csc(NC(=O)C(C)(C)C2c3ccccc3Oc3nc(-c4ccc(C(=O)N(C)C)cc4)ccc32)n1` (stereo not shown) [Example 363] the EC50 ([2]; Cellular Transrepression Assay) was 247 nM and the “AP-1 Max % inh (Cellular Transrepression Assay)” value ([2]; Cellular Transrepression Assay) was 47.74%.

Compound `O=C(CC1c2ccccc2Oc2ccccc21)Nc1nc(-c2cccc3ccccc23)cs1` [Example 4] has an Emax [2, 4] of 56.5%.

Compound `Cc1cnc(NC(=O)C(C)(C)[C@H]2c3ccccc3Oc3nc(-c4ccc(C(=O)N(C)C)cc4)ccc32)s1` [Example 444] has an Emax [2, 4] of 57.5% and an EC50 [2, 5] of 44.2 nM.

In the case of `CN(C)C(=O)c1ccc(-c2ccc3c(n2)Oc2c(F)cccc2C3C(C)(C)C(=O)Nc2nncs2)cc1` (racemic) [Example 164], the EC50 ([2]; Cellular Transrepression Assay) is reported as 5.58 nM and the “AP-1 Max % inh (Cellular Transrepression Assay)” value ([2]; Cellular Transrepression Assay) is reported as 57.26%.

Compound `COc1ccc(Cc2csc(NC(=O)C(C)(C)C3c4ccccc4Oc4c(OCCN(C)C)cccc43)n2)cc1` (stereo not shown) [Example 85] has an Emax [2, 4] of 88.4%.

In the case of `CC(C)(C(=O)Nc1nc(Cc2ccc(-c3ccncc3)cc2)cs1)C1c2ccccc2Oc2ncccc21` (stereo not shown) [Example 64], the Emax [2, 4] is reported as 79.3% and the EC50 [2, 5] is reported as 19.9 nM.

`CN(C)C(=O)c1ccc(-c2ccc3c(n2)Oc2ccccc2[C@@H]3C(C)(C)C(=O)Nc2ncns2)cc1` [Example 471] showed an Emax [2, 4] of 52.4% and an EC50 [2, 5] of 63.9 nM.
